Reference: ChEMBL document CHEMBL4390652, “Design, biological evaluation and X-ray crystallography of nanomolar multifunctional ligands targeting simultaneously acetylcholinesterase and glycogen synthase kinase-3” (Eur J Med Chem, 2019)

Assays:
[1] = test system: Tyrosine-protein kinase ABL1 (Homo sapiens), P00519 [H396P]; test: Binding affinity to human phosphorylated ABL1 H396P mutant (S229 to K512 residues) expressed in mammalian expression system assessed as residual binding level at 10 uM by Kinomescan method relative to control
[2] = target: Serine/threonine-protein kinase Chk2 (Homo sapiens) (UniProt O96017); test: Binding affinity to wild-type human partial length CHEK2 (S253 to E574 residues) expressed in bacterial expression system assessed as residual binding level at 10 uM by Kinomescan method relative to control
[3] = target: Casein kinase II subunit alpha (Homo sapiens) (UniProt P68400); test: Binding affinity to wild-type human full length CSNK2A1 (M1 to Q391 residues) expressed in mammalian expression system assessed as residual binding level at 10 uM by Kinomescan method relative to control
[4] = target: Epithelial discoidin domain-containing receptor 1 (Homo sapiens) (UniProt Q08345); test: Binding affinity to wild-type human partial length DDR1 (R565 to V876 residues) expressed in bacterial expression system assessed as residual binding level at 10 uM by Kinomescan method relative to control
[5] = target: Ephrin type-A receptor 5 (Homo sapiens) (UniProt P54756); test: Binding affinity to wild-type human partial length EPHA5 (T627 to V930 residues) expressed in bacterial expression system assessed as residual binding level at 10 uM by Kinomescan method relative to control
[6] = target: Receptor tyrosine-protein kinase erbB-2 (Homo sapiens) (UniProt P04626); test: Binding affinity to wild-type human partial length ERBB2 (K646 to V1225 residues) expressed in mammalian expression system assessed as residual binding level at 10 uM by Kinomescan method relative to control
[7] = target: Fibroblast growth factor receptor 3 (Homo sapiens) (UniProt P22607); test: Binding affinity to wild-type human partial length FGFR3 (R442 to S771 residues) expressed in bacterial expression system assessed as residual binding level at 10 uM by Kinomescan method relative to control
[8] = target: Tyrosine-protein kinase Fyn (Homo sapiens) (UniProt P06241); test: Binding affinity to wild-type human partial length FYN (T243 to L534 residues) expressed in bacterial expression system assessed as residual binding level at 10 uM by Kinomescan method relative to control
[9] = target: Homeodomain-interacting protein kinase 1 (Homo sapiens) (UniProt Q86Z02); test: Binding affinity to wild-type human partial length HIPK1 (M146 to I555 residues) expressed in mammalian expression system assessed as residual binding level at 10 uM by Kinomescan method relative to control
[10] = target: Inhibitor of nuclear factor kappa-B kinase subunit beta (Homo sapiens) (UniProt O14920); test: Binding affinity to wild-type human full length IKK-beta (M1 to S756 residues) expressed in mammalian expression system assessed as residual binding level at 10 uM by Kinomescan method relative to control
[11] = target: Leucine-rich repeat serine/threonine-protein kinase 2 (Homo sapiens) (UniProt Q5S007); test: Binding affinity to wild-type human partial length LRRK2 (H970 to E2527 residues) expressed in mammalian expression system assessed as residual binding level at 10 uM by Kinomescan method relative to control
[12] = target: MAP/microtubule affinity-regulating kinase 3 (Homo sapiens) (UniProt P27448); test: Binding affinity to wild-type human full length MARK3 (M1 to L729 residues) expressed in bacterial expression system assessed as residual binding level at 10 uM by Kinomescan method relative to control
[13] = target: Myosin light chain kinase (Homo sapiens) (UniProt Q32MK0); test: Binding affinity to wild-type human partial length MLCK (D488 to K800 residues) expressed in bacterial expression system assessed as residual binding level at 10 uM by Kinomescan method relative to control
[14] = target: Cyclin-dependent kinase 17 (Homo sapiens) (UniProt Q00537); test: Binding affinity to wild-type human full length PCTK2 (M1 to F523 residues) expressed in bacterial expression system assessed as residual binding level at 10 uM by Kinomescan method relative to control
[15] = target: Phosphatidylinositol 4,5-bisphosphate 3-kinase catalytic subunit alpha isoform (Homo sapiens) (UniProt P42336); test: Binding affinity to wild-type human partial length PIK3CA (R108 to N1068 residues) expressed in mammalian expression system assessed as residual binding level at 10 uM by Kinomescan method relative to control
[16] = target: Serine/threonine-protein kinase pim-2 (Homo sapiens) (UniProt Q9P1W9); test: Binding affinity to wild-type human partial length PIM2 (M1 to E291 residues) expressed in bacterial expression system assessed as residual binding level at 10 uM by Kinomescan method relative to control
[17] = target: Serine/threonine-protein kinase pim-3 (Homo sapiens) (UniProt Q86V86); test: Binding affinity to wild-type human partial length PIM3 (G16 to A317 residues) expressed in bacterial expression system assessed as residual binding level at 10 uM by Kinomescan method relative to control
[18] = target: Protein kinase C delta type (Homo sapiens) (UniProt Q05655); test: Binding affinity to wild-type human partial length PRKCD (Q328 to D676 residues) expressed in bacterial expression system assessed as residual binding level at 10 uM by Kinomescan method relative to control
[19] = test system: Proto-oncogene tyrosine-protein kinase receptor Ret (Homo sapiens), P07949 [M918T]; test: Binding affinity to human partial length RET M918T mutant (E713 to D1014 residues) expressed in bacterial expression system assessed as residual binding level at 10 uM by Kinomescan method relative to control
[20] = target: Serine/threonine-protein kinase SIK2 (Homo sapiens) (UniProt Q9H0K1); test: Binding affinity to wild-type human full length SIK2 (M1 to N926 residues) expressed in bacterial expression system assessed as residual binding level at 10 uM by Kinomescan method relative to control
[21] = target: Serine/threonine-protein kinase 36 (Homo sapiens) (UniProt Q9NRP7); test: Binding affinity to wild-type human partial length STK36 (M1 to T271 residues) expressed in bacterial expression system assessed as residual binding level at 10 uM by Kinomescan method relative to control
[22] = target: Tyrosine-protein kinase TXK (Homo sapiens) (UniProt P42681); test: Binding affinity to wild-type human partial length TXK (L238 to W527 residues) expressed in bacterial expression system assessed as residual binding level at 10 uM by Kinomescan method relative to control
[23] = target: Tyrosine-protein kinase receptor TYRO3 (Homo sapiens) (UniProt Q06418); test: Binding affinity to wild-type human partial length TYRO3 (S497 to T814 residues) expressed in bacterial expression system assessed as residual binding level at 10 uM by Kinomescan method relative to control
[24] = target: Serine/threonine-protein kinase ULK1 (Homo sapiens) (UniProt O75385); test: Binding affinity to wild-type human partial length ULK1 (M1 to T309 residues) expressed in mammalian expression system assessed as residual binding level at 10 uM by Kinomescan method relative to control
MDR1 = test: in vitro; conditions: dog, MDCK-MDR1
Description: Apparent permeability across apical to basolateral side in MDCK2-MDR1 cells by HPLC analysis

Epithelial discoidin domain-containing receptor 1 (Homo sapiens), sequence (Q08345 whole entry, the tested form may be a part): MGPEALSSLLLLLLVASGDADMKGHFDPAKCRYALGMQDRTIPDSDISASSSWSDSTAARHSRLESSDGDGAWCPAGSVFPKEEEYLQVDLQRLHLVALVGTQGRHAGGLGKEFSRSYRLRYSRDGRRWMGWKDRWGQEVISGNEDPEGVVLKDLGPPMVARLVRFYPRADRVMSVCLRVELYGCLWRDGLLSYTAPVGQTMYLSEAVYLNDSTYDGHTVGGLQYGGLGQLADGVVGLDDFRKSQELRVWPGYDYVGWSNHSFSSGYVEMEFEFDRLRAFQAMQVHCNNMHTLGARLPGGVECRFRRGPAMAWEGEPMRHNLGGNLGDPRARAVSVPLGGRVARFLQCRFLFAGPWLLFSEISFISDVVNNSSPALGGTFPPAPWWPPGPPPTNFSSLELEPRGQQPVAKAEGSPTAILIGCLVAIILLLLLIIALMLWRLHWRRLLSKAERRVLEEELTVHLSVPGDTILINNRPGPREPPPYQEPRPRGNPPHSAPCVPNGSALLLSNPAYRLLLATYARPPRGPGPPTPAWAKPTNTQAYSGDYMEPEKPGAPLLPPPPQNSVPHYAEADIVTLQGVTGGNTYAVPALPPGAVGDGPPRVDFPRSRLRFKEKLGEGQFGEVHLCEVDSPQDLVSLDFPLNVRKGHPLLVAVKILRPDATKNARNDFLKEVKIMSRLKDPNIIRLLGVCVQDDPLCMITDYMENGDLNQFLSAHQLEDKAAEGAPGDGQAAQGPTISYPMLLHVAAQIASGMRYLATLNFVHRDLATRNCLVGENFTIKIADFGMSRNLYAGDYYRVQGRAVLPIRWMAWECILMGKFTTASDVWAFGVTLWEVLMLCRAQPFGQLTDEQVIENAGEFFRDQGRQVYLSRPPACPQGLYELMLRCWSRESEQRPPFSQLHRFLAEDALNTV
Ephrin type-A receptor 5 (Homo sapiens), sequence (P54756 whole entry, the tested form may be a part): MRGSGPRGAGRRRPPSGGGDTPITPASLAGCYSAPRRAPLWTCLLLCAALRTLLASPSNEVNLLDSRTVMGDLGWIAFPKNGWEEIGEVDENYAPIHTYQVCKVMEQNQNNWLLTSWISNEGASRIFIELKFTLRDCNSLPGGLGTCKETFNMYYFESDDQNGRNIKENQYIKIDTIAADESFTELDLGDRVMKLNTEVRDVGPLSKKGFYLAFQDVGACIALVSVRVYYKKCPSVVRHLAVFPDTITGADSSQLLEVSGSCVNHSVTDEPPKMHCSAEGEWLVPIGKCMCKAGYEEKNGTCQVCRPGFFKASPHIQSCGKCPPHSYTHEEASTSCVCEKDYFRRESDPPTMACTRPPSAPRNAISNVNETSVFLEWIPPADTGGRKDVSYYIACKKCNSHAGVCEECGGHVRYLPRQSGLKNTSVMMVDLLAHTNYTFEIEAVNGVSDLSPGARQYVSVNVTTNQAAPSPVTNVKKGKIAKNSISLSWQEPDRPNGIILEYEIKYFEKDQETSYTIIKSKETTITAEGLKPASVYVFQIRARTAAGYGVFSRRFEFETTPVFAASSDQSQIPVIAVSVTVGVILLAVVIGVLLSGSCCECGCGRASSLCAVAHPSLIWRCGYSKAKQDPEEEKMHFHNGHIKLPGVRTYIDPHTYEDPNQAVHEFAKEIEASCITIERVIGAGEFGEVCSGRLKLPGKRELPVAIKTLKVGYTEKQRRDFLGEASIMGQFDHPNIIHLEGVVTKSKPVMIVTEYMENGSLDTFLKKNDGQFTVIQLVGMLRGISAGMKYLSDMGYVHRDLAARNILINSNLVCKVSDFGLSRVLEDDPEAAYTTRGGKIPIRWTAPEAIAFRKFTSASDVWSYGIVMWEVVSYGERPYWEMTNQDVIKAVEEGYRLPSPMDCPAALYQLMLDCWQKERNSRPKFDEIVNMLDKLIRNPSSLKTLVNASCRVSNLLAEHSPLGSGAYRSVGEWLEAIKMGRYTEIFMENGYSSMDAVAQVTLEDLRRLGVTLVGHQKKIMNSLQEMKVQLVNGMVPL
Fibroblast growth factor receptor 3 (Homo sapiens), sequence (P22607 23-806 limits assumed): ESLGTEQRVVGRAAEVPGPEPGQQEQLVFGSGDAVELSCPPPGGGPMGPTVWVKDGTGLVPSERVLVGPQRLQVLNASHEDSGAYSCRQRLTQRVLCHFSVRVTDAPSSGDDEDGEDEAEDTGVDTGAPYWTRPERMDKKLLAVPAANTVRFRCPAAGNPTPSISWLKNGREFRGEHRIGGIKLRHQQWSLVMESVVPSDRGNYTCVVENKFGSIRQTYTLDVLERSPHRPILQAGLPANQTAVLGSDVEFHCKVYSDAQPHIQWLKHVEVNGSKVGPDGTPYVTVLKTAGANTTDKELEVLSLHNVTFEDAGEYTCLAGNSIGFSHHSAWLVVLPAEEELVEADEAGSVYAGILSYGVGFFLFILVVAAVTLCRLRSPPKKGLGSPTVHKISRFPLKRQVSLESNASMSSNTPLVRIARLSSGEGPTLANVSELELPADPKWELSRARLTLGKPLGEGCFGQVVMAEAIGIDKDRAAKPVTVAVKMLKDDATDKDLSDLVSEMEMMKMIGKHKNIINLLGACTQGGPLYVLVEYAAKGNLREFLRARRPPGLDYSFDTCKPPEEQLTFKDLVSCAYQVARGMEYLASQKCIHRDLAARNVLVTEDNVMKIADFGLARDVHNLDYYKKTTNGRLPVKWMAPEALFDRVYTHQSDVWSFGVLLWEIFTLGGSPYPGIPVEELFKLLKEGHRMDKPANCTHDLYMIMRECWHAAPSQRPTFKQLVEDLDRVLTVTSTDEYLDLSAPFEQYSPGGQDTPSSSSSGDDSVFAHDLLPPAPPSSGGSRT
Cyclin-dependent kinase 17 (Homo sapiens), sequence (Q00537 whole entry, looked up, the tested form may be a part, canonical isoform): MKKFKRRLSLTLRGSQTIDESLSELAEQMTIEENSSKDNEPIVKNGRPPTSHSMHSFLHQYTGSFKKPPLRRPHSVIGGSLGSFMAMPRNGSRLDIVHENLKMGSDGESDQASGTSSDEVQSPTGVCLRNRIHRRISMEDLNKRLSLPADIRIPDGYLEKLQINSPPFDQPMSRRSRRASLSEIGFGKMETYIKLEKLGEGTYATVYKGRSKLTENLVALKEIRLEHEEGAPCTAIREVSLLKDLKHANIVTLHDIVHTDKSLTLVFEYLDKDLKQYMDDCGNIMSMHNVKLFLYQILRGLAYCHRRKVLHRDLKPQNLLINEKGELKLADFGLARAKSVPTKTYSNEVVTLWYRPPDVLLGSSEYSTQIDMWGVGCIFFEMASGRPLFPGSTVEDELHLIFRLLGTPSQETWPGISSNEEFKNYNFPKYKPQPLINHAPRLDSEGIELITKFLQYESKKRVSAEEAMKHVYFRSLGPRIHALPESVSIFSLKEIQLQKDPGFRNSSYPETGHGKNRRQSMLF
Tyrosine-protein kinase Fyn (Homo sapiens), sequence (P06241 2-537 limits assumed): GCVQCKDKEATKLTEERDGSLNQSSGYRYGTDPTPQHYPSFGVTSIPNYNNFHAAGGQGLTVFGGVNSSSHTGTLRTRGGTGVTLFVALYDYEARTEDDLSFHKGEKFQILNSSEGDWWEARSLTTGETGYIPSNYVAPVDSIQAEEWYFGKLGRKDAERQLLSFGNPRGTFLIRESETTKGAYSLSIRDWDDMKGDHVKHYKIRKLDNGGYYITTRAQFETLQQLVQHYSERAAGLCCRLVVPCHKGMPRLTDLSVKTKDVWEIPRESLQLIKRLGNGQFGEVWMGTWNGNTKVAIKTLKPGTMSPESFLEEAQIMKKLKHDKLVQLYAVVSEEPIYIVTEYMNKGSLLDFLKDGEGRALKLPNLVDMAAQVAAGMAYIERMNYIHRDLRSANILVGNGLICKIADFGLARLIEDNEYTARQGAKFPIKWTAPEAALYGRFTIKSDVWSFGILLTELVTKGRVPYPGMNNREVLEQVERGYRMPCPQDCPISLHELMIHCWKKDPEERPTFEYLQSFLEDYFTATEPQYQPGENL
Serine/threonine-protein kinase pim-2 (Homo sapiens), sequence (Q9P1W9 whole entry, looked up, the tested form may be a part): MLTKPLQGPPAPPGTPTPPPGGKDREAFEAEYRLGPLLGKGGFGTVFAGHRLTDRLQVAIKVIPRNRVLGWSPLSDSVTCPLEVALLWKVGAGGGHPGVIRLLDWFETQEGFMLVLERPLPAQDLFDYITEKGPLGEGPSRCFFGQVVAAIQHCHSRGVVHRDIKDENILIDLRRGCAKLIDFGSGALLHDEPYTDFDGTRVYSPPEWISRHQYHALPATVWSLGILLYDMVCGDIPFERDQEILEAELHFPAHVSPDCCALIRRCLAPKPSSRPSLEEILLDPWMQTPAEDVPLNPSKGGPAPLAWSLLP
Myosin light chain kinase (Homo sapiens), sequence (Q32MK0 whole entry, the tested form may be a part): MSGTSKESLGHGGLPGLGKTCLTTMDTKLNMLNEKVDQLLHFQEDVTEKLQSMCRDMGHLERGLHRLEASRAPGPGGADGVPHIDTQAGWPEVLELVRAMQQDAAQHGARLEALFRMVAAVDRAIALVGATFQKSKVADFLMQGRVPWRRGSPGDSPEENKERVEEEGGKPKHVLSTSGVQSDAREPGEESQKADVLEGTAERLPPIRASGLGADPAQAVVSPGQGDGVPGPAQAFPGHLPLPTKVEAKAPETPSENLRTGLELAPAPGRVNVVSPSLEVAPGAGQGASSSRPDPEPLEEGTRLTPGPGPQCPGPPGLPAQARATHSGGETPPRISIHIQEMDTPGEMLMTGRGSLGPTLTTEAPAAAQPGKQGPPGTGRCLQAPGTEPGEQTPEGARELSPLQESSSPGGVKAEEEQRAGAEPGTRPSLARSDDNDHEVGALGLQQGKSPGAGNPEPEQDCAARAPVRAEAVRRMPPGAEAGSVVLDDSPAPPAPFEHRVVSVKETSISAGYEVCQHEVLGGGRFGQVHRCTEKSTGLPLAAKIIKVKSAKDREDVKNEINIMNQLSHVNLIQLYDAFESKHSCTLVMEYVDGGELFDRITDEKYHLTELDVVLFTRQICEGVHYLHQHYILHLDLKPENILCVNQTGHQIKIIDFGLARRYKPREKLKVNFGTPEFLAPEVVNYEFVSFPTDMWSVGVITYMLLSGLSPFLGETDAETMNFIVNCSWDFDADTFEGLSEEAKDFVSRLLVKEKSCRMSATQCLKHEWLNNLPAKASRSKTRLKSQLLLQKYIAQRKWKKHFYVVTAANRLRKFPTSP

O=C(Nc1cc(-c2cn(CCNc3c4c(nc5ccccc35)CCCC4)nn2)ccn1)Nc1cccc2c1C1CCCCN1C2=O (racemic)
Activity [1]: 0.5% | Activity [2]: 90% | Activity [3]: 33% | Activity [4]: 0.3% | Activity [5]: 81% | Activity [6]: 100% | Activity [7]: 54% | Activity [8]: 74% | Activity [9]: 43% | Activity [10]: 30% | Activity [11]: 38% | Activity [12]: 91% | Activity [13]: 0.35% | Activity [14]: 4.2% | Activity [15]: 73% | Activity [16]: 16% | Activity [17]: 24% | Activity [18]: 7.3% | Activity [19]: 42% | Activity [20]: 36% | Activity [21]: 9.1% | Activity [22]: 95% | Activity [23]: 96% | Activity [24]: 38% | Papp A→B (MDR1): 11.1 ×10⁻⁶ cm/s
